Columns and labels:
[1] = test system: S. aureus Newman; assay: fitness (endpoint OD595 vs no drug) (fraction); higher = more growth
Outline: (§1)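 Fitness is computed from the optical density at which cultures reach stationary phase, divided by the robust mean of no-drug control wells. Any value above 1 is set to 1. Cultures started at OD595 0.01 in 384-well plates with TSB, LB Lennox or CY at 37 °C, and OD595 was read every 30 min for 14 h against a first-reading background.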

[2] = test system: S. aureus DSM 20231; assay: as above
Outline: as §1

[3] = test system: S. aureus Newman; assay: Bliss interaction score (quartile over a dose matrix) (fitness difference); higher = more antagonism (negative = synergy)
Outline: (§2)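 The Bliss score was calculated by subtracting the expected fitness, the product of single-drug values, from the observed fitness. OD595 at entry into stationary phase, over the plate's robust no-drug mean and capped at 1, served as the fitness readout. Single-drug values were inferred from combination data, and scores are summarised by quartiles across technical, biological and donor/recipient replicates.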

[4] = test system: S. pneumoniae D39V; assay: as above
Outline: as §2

[5] = test system: B. subtilis 168; assay: as above
Outline: as §2

[6] = test system: S. aureus DSM 20231; assay: as above
Outline: as §2
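For Bliss interaction score (quartile over a dose matrix) in this document: first quartile when negative (synergy) and third quartile when positive (antagonism).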

CO/N=C(\C(=O)N[C@@H]1C(=O)N2C(C(=O)[O-])=C(C[N+]3(C)CCCC3)CS[C@H]12)c1csc(N)n1 [Cefepime] + CCCCCCCCCC(=O)N[C@@H]1[C@H]([C@@H]([C@H](O[C@H]1OC2=C3C=C4C=C2OC5=C(C=C(C=C5)[C@H]([C@H]6C(=O)N[C@@H](C7=C(C(=CC(=C7)O)OC8[C@H]([C@H]([C@@H]([C@H](O8)CO)O)O)O)C9=C(C=CC(=C9)[C@H](C(=O)N6)NC(=O)[C@@H]4NC(=O)[C@@H]1C2=CC(=CC(=C2)OC2=C(C=CC(=C2)[C@H](C(=O)N[C@H](CC2=CC(=C(O3)C=C2)Cl)C(=O)N1)N)O)O)O)C(=O)O)O[C@H]1[C@@H]([C@H]([C@@H]([C@H](O1)CO)O)O)NC(=O)C)Cl)CO)O)O [Teicoplanin]
fitness, main component drawn
Details	first compound 0.125 µg/mL	first compound 0.25 µg/mL	first compound 0.5 µg/mL
[1], partner 0.1562 µg/mL	0.892	0.827	0.713
[1], partner 0.3125 µg/mL	0.897	0.799	0.73
[1], partner 0.625 µg/mL	0.891	0.766	0.646
[2], partner 0.1562 µg/mL	0.9	0.88	0.864
[2], partner 0.3125 µg/mL	0.959	0.929	0.919
[2], partner 0.625 µg/mL	0.984	0.87	0.842

fitness, [1], one replicate, main component drawn
Details	first compound 0.125 µg/mL	first compound 0.25 µg/mL	first compound 0.5 µg/mL
partner 0.62 µg/mL	0.712	0.61	0.625
partner 1.24 µg/mL	0.7	0.634	0.576
partner 2.48 µg/mL	0.459	0.173	0.203

main component drawn
Details	Bliss interaction score
[3]	-0.0867
[4]	0.0453
[5]	-0.172
[6]	-0.0986

CCCCCCCCCC(=O)N[C@@H](Cc1c[nH]c2ccccc12)C(=O)N[C@H](CC(N)=O)C(=O)N[C@@H](CC(=O)O)C(=O)N[C@@H]1C(=O)NCC(=O)N[C@@H](CCCN)C(=O)N[C@@H](CC(=O)O)C(=O)N[C@H](C)C(=O)N[C@@H](CC(=O)O)C(=O)NCC(=O)N[C@H](CO)C(=O)N[C@@H]([C@H](C)CC(=O)O)C(=O)N[C@@H](CC(=O)c2ccccc2N)C(=O)O[C@@H]1C [Daptomycin] + CCCCCCCCCC(=O)N[C@@H]1[C@H]([C@@H]([C@H](O[C@H]1OC2=C3C=C4C=C2OC5=C(C=C(C=C5)[C@H]([C@H]6C(=O)N[C@@H](C7=C(C(=CC(=C7)O)OC8[C@H]([C@H]([C@@H]([C@H](O8)CO)O)O)O)C9=C(C=CC(=C9)[C@H](C(=O)N6)NC(=O)[C@@H]4NC(=O)[C@@H]1C2=CC(=CC(=C2)OC2=C(C=CC(=C2)[C@H](C(=O)N[C@H](CC2=CC(=C(O3)C=C2)Cl)C(=O)N1)N)O)O)O)C(=O)O)O[C@H]1[C@@H]([C@H]([C@@H]([C@H](O1)CO)O)O)NC(=O)C)Cl)CO)O)O [Teicoplanin]
fitness, main component drawn
Details	first compound 0.125 µg/mL	first compound 0.25 µg/mL	first compound 0.5 µg/mL	first compound 1 µg/mL	first compound 2 µg/mL
[1], partner 0.1562 µg/mL	0.998	0.992	≥ 1	–	–
[1], partner 0.3125 µg/mL	≥ 1	≥ 1	≥ 1	–	–
[1], partner 0.625 µg/mL	≥ 1	≥ 1	≥ 1	–	–
[2], partner 0.1562 µg/mL	0.976	0.977	≥ 1	0.949	≥ 1
[2], partner 0.3125 µg/mL	≥ 1	≥ 1	≥ 1	≥ 1	0.991
[2], partner 0.625 µg/mL	≥ 1	≥ 1	≥ 1	≥ 1	≥ 1

fitness, [1], one replicate, main component drawn
Details	first compound 0.5 µg/mL	first compound 1 µg/mL	first compound 2 µg/mL
partner 0.62 µg/mL	0.791	0.785	0.924
partner 1.24 µg/mL	0.746	0.753	0.765
partner 2.48 µg/mL	0.461	0.471	0.501

main component drawn
Details	Bliss interaction score
[3]	0.0337
[4]	0.0818
[5]	0.0936
[6]	0.0282

CC1(C)S[C@@H]2[C@H](NC(=O)[C@H](N)c3ccc(O)cc3)C(=O)N2[C@H]1C(=O)O [Amoxicillin] + CC[C@H]1OC(=O)[C@H](C)[C@@H](O[C@H]2C[C@@](C)(OC)[C@@H](O)[C@H](C)O2)[C@H](C)[C@@H](O[C@@H]2O[C@H](C)C[C@H](N(C)C)[C@H]2O)[C@](C)(O)C[C@@H](C)CN(C)[C@H](C)[C@@H](O)[C@]1(C)O [Azithromycin]
fitness
Details	first compound 0.0625 µg/mL	first compound 0.125 µg/mL	first compound 0.25 µg/mL
[1], partner 0.125 µg/mL	0.788	0.795	0.757
[1], partner 0.25 µg/mL	0.816	0.805	0.71
[1], partner 0.5 µg/mL	0.681	–	–
[2], partner 0.125 µg/mL	0.527	–	0.0737
[2], partner 0.25 µg/mL	0.614	–	0.0516
[2], partner 0.5 µg/mL	0.277	0.108	0.0273

[2], first compound 0.5 µg/mL, one replicate
Details	fitness
partner 0.125 µg/mL	0.0165
partner 0.25 µg/mL	0.004
partner 0.5 µg/mL	0.0043

Details	Bliss interaction score
[3]	-0.0697
[4]	0.156
[5]	-0.0431
[6]	-0.0724

From the supplement of paper PMC10627819
